# Data published in US9969710B2, “Heteroaryl compounds as IRAK inhibitors and uses thereof” (Merck Patent GmbH, priority 2015, dated 2018).
# Key:
# [1] = system: TLR7 induced IL-6 secretion in human mononuclear cells (PBMC's); experiment: TLR7 induced IL-6 in human PBMC's; format: cell-based; conditions: TLR7 specific ligand 2 uM overnight, IL-6 AlphaLISA
# Method: TLR7 Induced IL-6 in Human PBMC's
# Human PBMC assay was used as one of the functional assaya to monitor the activity of IRAK1 and IRAK4 small molecule inhibitors on TLR7 induced IL-6 secretion in human mononuclear cells (PBMC's). Human PBMCs were prepared from buffy coats (whole blood enriched with leukocytes and platelets) obtained from healthy volunteers used either fresh or frozen are plated in assay media (RPMI+2% P/S/L-glu+10% HI-FBS) and pre-treated with compounds in DMSO/media (range of concentrations from 25 uM to 0.4 nM) or controls (0.25% DMSO) for 30 minutes at 37° C. in assay media. Following pre-treatment with IRAK1 and IRAK4 inhibitors, PBMC's were stimulated with TLR7 specific ligand (2 uM) overnight (16-18 hrs) at 37° C. After incubation supernatant was transferred to 384 well PE AlphaPlate-384 (6005350) and IL-6 is quantified using Perkin Elmer IL-6 Alpha LISA kit (AL223C). Plates were read on an Envision® plate reader with Alpha Technology®.
# IRAK4 = molecular target: T1, IRAK4 (Homo sapiens, UniProt Q9NWZ3); experiment: IRAK4 enzymatic assay (ADP-Glo luminescence); format: biochemical; conditions: human recombinant His-TEV-IRAK4 (1-460), STK1-biotin peptide substrate
# T1 construct: His-TEV-IRAK4 (1-460); His (N); TEV cleavage site (N)
# T1 sequence (Q9NWZ3 1-460): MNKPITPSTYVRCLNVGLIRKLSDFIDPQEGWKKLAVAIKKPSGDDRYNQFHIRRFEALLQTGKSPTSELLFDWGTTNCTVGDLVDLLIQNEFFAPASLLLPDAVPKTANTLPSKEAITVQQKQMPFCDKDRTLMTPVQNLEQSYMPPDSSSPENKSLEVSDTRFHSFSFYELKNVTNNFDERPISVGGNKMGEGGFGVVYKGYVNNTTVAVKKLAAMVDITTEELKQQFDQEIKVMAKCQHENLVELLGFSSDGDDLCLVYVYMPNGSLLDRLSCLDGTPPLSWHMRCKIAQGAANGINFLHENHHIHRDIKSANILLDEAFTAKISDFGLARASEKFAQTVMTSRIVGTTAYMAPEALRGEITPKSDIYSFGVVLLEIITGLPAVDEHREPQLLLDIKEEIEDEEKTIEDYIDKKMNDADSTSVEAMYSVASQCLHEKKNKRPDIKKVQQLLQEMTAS
# Method: IRAK4 is a human purified recombinant enzyme (His-TEV-IRAK4 (1-460)).
# In this assay, IRAK4 hydrolyses ATP, autophosphorylates and phosphorylates a Serine/Threonine generic peptidic substrate (STK: 61ST1BLC from CisBio International). Measurement of IRAK-4 inhibition is performed in 384-well format based on a luminescence assay (ADP-Glo™ Kinase Assay from Promega). Purified human recombinant IRAK4 ([…]) and serial diluted compounds in DMSO (range of concentration from 10 μM to 0.5 nM) or controls (1% DMSO) are incubated for 15 minutes at RT in assay buffer containing 50 mM Hepes pH 7.0, Fatty acid-free BSA 0.1%, Dithiothreitol (DTT) 2 mM, MgCl2 10 mM, EGTA 0.5 mM, Triton X-100 0.01%, MnCl2 5 mM. The kinase reaction is then initiated by the addition of ATP ([…]) and the peptidic substrate STK1-biotin peptide (300 nM). After 2 hours of incubation at RT, the reaction is stopped and the unconsumed ATP depleted by the addition of ADP-Glo™ Reagent according to supplier instructions. After 40 minutes of incubation at RT, the Kinase Detection Reagent is then added to the assay plate according to supplier instructions. After 20 minutes of incubation at RT, the luminescence signal is measured with a plate-reading luminometer (PerkinElmer Envision or equivalent reader).
# IRAK1 = molecular target: T2, IRAK1 (Homo sapiens, UniProt P51617); experiment: IRAK1 enzymatic assay (ADP-Glo luminescence); format: biochemical; conditions: human recombinant His-TEV-IRAK1 (194-712), ATP 1 μM; read-out: IRAK 1 IC50
# T2 construct: His-TEV-IRAK1 (194-712); His (N); TEV cleavage site (N)
# T2 sequence (P51617 194-712): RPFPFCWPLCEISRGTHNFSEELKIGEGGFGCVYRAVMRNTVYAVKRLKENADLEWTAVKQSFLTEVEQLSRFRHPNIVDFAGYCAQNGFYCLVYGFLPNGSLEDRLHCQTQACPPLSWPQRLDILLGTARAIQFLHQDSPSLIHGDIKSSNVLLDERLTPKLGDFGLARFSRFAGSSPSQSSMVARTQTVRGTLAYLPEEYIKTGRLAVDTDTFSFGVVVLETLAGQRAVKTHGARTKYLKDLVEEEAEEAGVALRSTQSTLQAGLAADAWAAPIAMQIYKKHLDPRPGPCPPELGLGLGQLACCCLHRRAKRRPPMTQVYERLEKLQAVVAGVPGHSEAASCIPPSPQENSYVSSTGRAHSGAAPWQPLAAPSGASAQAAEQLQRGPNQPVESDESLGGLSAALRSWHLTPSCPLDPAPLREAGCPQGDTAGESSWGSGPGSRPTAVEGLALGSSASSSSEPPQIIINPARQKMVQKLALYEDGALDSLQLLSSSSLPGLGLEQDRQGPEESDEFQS
# Method: IRAK1 is a human purified recombinant enzyme (His-TEV-IRAK1 (194-712))
# In this assay, IRAK1 hydrolyses ATP and autophosphorylates. Measurement of IRAK-1 inhibition is performed in 384-well format based on luminescence assay (ADP-Glo™ Kinase Assay from Promega). Purified human recombinant IRAK1 ([…]) and serial diluted compounds in DMSO (range of concentration from 10 μM to 0.5 nM) or controls (1% DMSO) are incubated for 15 minutes at RT in assay buffer containing 50 mM Hepes pH 7.0, Fatty acid-free BSA 0.1%, Dithiothreitol (DTT) 2 mM, MgCl2 10 mM, EGTA 0.5 mM, Triton X-100 0.01%. The kinase reaction is then initiated by the addition of ATP at a concentration of 1 μM. After 2 hours of incubation at RT, the reaction is stopped and the unconsumed ATP depleted by the addition of ADP-Glo™ Reagent according to supplier instructions. After 40 minutes of incubation at RT, the Kinase Detection Reagent is then added to the assay plate according to supplier instructions. After 20 minutes of incubation at RT, the luminescence signal is measured with a luminometer (PerkinElmer Envision or equivalent reader).
SMILES,IC50 (IRAK4) [nM],IC50 (IRAK1) [nM],"IC50 ([1]; Homo sapiens, PBMC) [nM]",IC50 [1] [nM]
"CC(=O)N1C2CCC1CC(c1ccc3c(c1)[nH]/c(=N\C(=O)c1cccc(C(F)(F)F)c1)n3CCCO)C2 (stereo not drawn) [Compound 15, (E)-N-(5-(8-acetyl-8-azabicyclo[3.2.1]octan-3-yl)-1-(3-hydroxypropyl)-1H-benzo[d]imidazol-2(3H)-ylidene)-3-(trifluoromethyl)benzamide]",≤ 100,≤ 100,≤ 100,
"CN1CCCC(c2ccc3c(c2)[nH]/c(=N\C(=O)c2cccc(C(F)F)c2)n3C[C@@](C)(F)CO)C1=O (stereo partly drawn) [Compound 2b, (E)-3-(difluoromethyl)-N-(1-((R)-2-fluoro-3-hydroxy-2-methylpropyl)-5-(1-methyl-2-oxopiperidin-3-yl)-1H-benzo[d]imidazol-2(3H)-ylidene)benzamide]",≤ 100,100 to 1000,≤ 100,
"CN1CCC(c2ccc3c(c2)[nH]/c(=N\C(=O)c2cccc(C(F)(F)F)c2)n3CCC(O)CO)C1=O (single isomer, unassigned) [Compound 21c]",≤ 100,100 to 1000,,≤ 100
"CN1CC(c2ccc3c(c2)[nH]/c(=N\C(=O)c2cccc(C(F)(F)F)c2)n3CCCO)CC1=O (stereo not drawn) [Compound 10, (E)-N-(1-(3-hydroxypropyl)-5-(1-methyl-5-oxopyrrolidin-3-yl)-1H-benzo[d]imidazol-2(3H)-ylidene)-3-(trifluoromethyl)benzamide]",≤ 100,100 to 1000,100 to 1000,
"Cc1ccn(C)c(=O)c1-c1ccc2c(c1)[nH]/c(=N\C(=O)c1cccc(C(F)(F)F)c1)n2CCCO [Compound 6, (E)-N-(5-(1,4-dimethyl-2-oxo-1,2-dihydropyridin-3-yl)-1-(3-hydroxypropyl)-1H-benzo[d]imidazol-2(3H)-ylidene)-3-(trifluoromethyl)benzamide]",≤ 100,100 to 1000,,
"O=C1C=C(c2ccc3c(c2)[nH]/c(=N\C(=O)c2cccc(C(F)(F)F)c2)n3CCCO)CO1 [Compound 9, (E)-N-(1-(3-hydroxypropyl)-5-(5-oxo-2,5-dihydrofuran-3-yl)-1H-benzo[d]imidazol-2(3H)-ylidene)-3-(trifluoromethyl)benzamide]",≤ 100,100 to 1000,,
"CN1CCCC(c2ccc3c(c2)[nH]/c(=N\C(=O)c2cccc(C(F)F)c2)n3C[C@](C)(F)CO)C1=O (stereo partly drawn) [Compound 2a, (E)-3-(difluoromethyl)-N-(1-((S)-2-fluoro-3-hydroxy-2-methylpropyl)-5-(1-methyl-2-oxopiperidin-3-yl)-1H-benzo[d]imidazol-2(3H)-ylidene)benzamide]",≤ 100,100 to 1000,,
"Cn1cccc(-c2ccc3c(c2)[nH]/c(=N\C(=O)c2cccc(C(F)(F)F)c2)n3CCCO)c1=O [Compound 4, (E)-N-(1-(3-hydroxypropyl)-5-(1-methyl-2-oxo-1,2-dihydropyridin-3-yl)-1H-benzo[d]imidazol-2(3H)-ylidene)-3-(trifluoromethyl)benzamide]",≤ 100,100 to 1000,,
"O=C(/N=c1\[nH]c2cc(C3CCCCC3=O)ccc2n1CCCO)c1cccc(C(F)(F)F)c1 (stereo not drawn) [Compound 8, (E)-N-(1-(3-hydroxypropyl)-5-(2-oxocyclohexyl)-1H-benzo[d]imidazol-2(3H)-ylidene)-3-(trifluoromethyl)benzamide]",≤ 100,≤ 100,,

# Continued, in another order:
IC50 (IRAK4) [nM],IC50 (IRAK1) [nM],SMILES,"IC50 ([1]; Homo sapiens, PBMC) [nM]",IC50 [1] [nM]
≤ 100,100 to 1000,"CN1C[C@H](c2ccc3c(c2)nc(NC(=O)c2cccc(C(F)(F)F)c2)n3CCCO)C(C)(C)C1=O [Compound 25b, N-[1-(3-hydroxypropyl)-5-[(3R)-1,4,4-trimethyl-5-oxopyrrolidin-3-yl]-1H-1,3-benzodiazol-2-yl]-3-(trifluoromethyl)benzamide]",100 to 1000,
≤ 100,100 to 1000,"CN1C(=O)CCC1(C)c1ccc2c(c1)nc(NC(=O)c1cccc(C(F)(F)F)c1)n2CCCO (single isomer, unassigned) [Compound 32a]",1000 to 10000,
≤ 100,100 to 1000,"CN1CCC[C@H](c2ccc3c(c2)[nH]/c(=N\C(=O)c2cccc(C(F)F)c2)n3C[C@](C)(F)CO)C1=O (single isomer, unassigned) [Compound 3c]",≤ 100,
≤ 100,100 to 1000,"C=CCCn1/c(=N/C(=O)c2cccc(C(F)(F)F)c2)[nH]c2cc(C3CCN(C)C3=O)ccc21 (stereo not drawn) [Compound 17, N-[1-But-3-enyl-5-(1-methyl-2-oxo-pyrrolidin-3-yl)-1,3-dihydro-benzoimidazol-(2E)-ylidene]-3-trifluoromethyl-benzamide]",100 to 1000,
≤ 100,100 to 1000,"CN1CCCC(c2ccc3c(c2)[nH]/c(=N\C(=O)c2cccc(C(F)(F)F)c2)n3CCC(O)CO)C1=O (stereo not drawn) [Compound 22, N-[1-(3,4-Dihydroxy-butyl)-5-(1-methyl-2-oxo-piperidin-3-yl)-1,3-dihydro-benzoimidazol-(2E)-ylidene]-3-trifluoromethyl-benzamide]",≤ 100,
≤ 100,100 to 1000,"CN1CCCC(c2ccc3c(c2)[nH]/c(=N\C(=O)c2cccc(C(F)(F)F)c2)n3CCC(O)CO)C1=O (single isomer, unassigned) [Compound 22d]",,100 to 1000
≤ 100,1000 to 10000,"O=C(/N=c1\[nH]c2cc(C3(O)COC3)ccc2n1CCCO)c1cccc(C(F)(F)F)c1 [Compound 11, (E)-N-(5-(3-hydroxyoxetan-3-yl)-1-(3-hydroxypropyl)-1H-benzo[d]imidazol-2(3H)-ylidene)-3-(trifluoromethyl)benzamide]",,
≤ 100,≤ 100,"CC(=O)N1CCC(c2ccc3c(c2)[nH]/c(=N\C(=O)c2cccc(C(F)(F)F)c2)n3CCCO)CC1 [Compound 13, (E)-N-(5-(1-acetylpiperidin-4-yl)-1-(3-hydroxypropyl)-1H-benzo[d]imidazol-2(3H)-ylidene)-3-(trifluoromethyl)benzamide]",100 to 1000,
≤ 100,100 to 1000,"C=CCCn1/c(=N/C(=O)c2cccc(C(F)(F)F)c2)[nH]c2cc(C3CCCN(C)C3=O)ccc21 (stereo not drawn) [Compound 18, N-[1-But-3-enyl-5-(1-methyl-2-oxo-piperidin-3-yl)-1,3-dihydro-benzoimidazol-(2E)-ylidene]-3-trifluoromethyl-benzamide]",100 to 1000,
≤ 100,100 to 1000,"CN1C(=O)CCC1(C)c1ccc2c(c1)nc(NC(=O)c1cccc(C(F)F)c1)n2CCCO (single isomer, unassigned) [Compound 31a]",1000 to 10000,
